Like-named read-outs stand apart in the source and are kept apart here. Marks after values point to notes of the source that are not given here.
Key:
[1] = test system: P. falciparum chloroquine-sensitive strain D6; conditions: read-out: IC50 against P. falciparum strain D6; cited from earlier work
[2] = test system: human oral epidermoid carcinoma (KB) cells; set-up: method as in PMID 9917283; conditions: cited from earlier work
[3] = test system: human ovarian epithelial (HOE) cells; conditions: cited from earlier work
[4] = test system: chloroquine-resistant P. falciparum strain W2; conditions: cited from earlier work
[5] = test system: P. falciparum Dd2 chloroquine-resistant strain; assay: In vitro antiplasmodial activity, SYBR green I fluorescence assay; format: cell-based, Plasmodium falciparum
Description: Normalized fluorescence signals were measured against controls with 1% DMSO (100% growth) and after exposure to a supralethal concentration (10 μM) of chloroquine (0% growth). Determination of the 50% inhibitory concentration (IC50) was performed from a log concentration versus the mean normalized fluorescence signal curve using GraphPad Prism software (v5.0). Each biological replicate consisted of three technical repeats, with three independent biological replicates performed.

Plasmodium berghei [6] = assay: Suppressive activity during early P. berghei infection of mice; format: in vivo; conditions: suppressive model; for Parasitemia after infection for 96 h / MST: mean ± SEM, n = 6; for MST: over 30 days
Description: (§1) (i) Malaria parasite. Chloroquine-sensitive strains of P. berghei were sourced from the National Institute of Medical Research (NIMER), Yaba Lagos, Nigeria, and maintained by subpassage in mice.
(§2) (ii) Parasite inoculation. Each mouse was inoculated intraperitoneally with about 1 × 10^7 P. berghei parasitized erythrocytes in 0.2 ml of infected blood (5 × 10^7 P. berghei erythrocytes/ml) according to published procedure ([39]).
(§3) (iii) Experimental animals. Female and male Swiss albino mice (18 to 25 g) were obtained from the University of Uyo’s animal house. Before use, mice were kept in cages and acclimatized for 10 days. All mice were kept in cross-ventilated rooms at room temperature. The care and use of mice were performed in accordance with the National Institutes of Health Guide for the Care and Use of Laboratory Animals (1996). This investigation was approved by the University of Uyo’s Animal Ethics Committee.
(§4) (v) Drug administration. Cycleanine, chloroquine, and pyrimethamine were prepared in water and administered orally with the aid of a stainless metallic feeding cannula.
(vi) Suppressive activity of cycleanine. The schizontocidal activity of cycleanine and chloroquine against early P. berghei infection in mice was measured according to an established protocol ([25], [41], [42]). On the first day, 20 to 24 mice were infected with the parasite and randomly separated into four groups. The mice in groups 1 and 2 were given 25 and 50 mg/kg of cycleanine, respectively, those in group 3 were given 5 mg/kg of chloroquine (positive control), and those in group 4 were given distilled water (10 ml/kg, negative control) for four consecutive days. Thin films were made from the tail blood on the fifth day. Parasitized erythrocytes were counted in stained films (Giemsa stain) under a microscope. The average suppression of parasitemia (%) was calculated as follows: average % parasitemia positive control−average % parasitemia negative control/average % parasitemia negative control×100
The MST (in days) of the mice in each group was determined over a period of 30 days.

Plasmodium berghei [7] = assay: Curative activity during established P. berghei infection of mice; format: in vivo; conditions: curative model, n = 6; for MST: over 30 days
Description: as §1, §2, §3, §4
(viii) Curative activity of cycleanine. The curative activity of cycleanine was assessed according to a method described previously ([42], [44]). P. berghei was injected intraperitoneally into another 24 mice on the first day. Three days later, the mice were also separated into four groups of six mice per group. Groups 1 and 2 were administered different doses of cycleanine, 25 and 50 mg/kg, respectively, group 3 was given 5 mg/kg chloroquine (positive control), and group 4 was given 10 ml/kg distilled water (negative control). Cycleanine and chloroquine were given once a day for 5 days. Mouse tail blood samples were collected on each day, and Giemsa-stained thin smears were prepared to determine the parasitemia level. The MST of the mice in each group was determined over a period of 30 days.

[8] = test system: HCT-116 human colon carcinoma cells; conditions: cited from earlier work
Plasmodium berghei [9] = assay: Prophylactic activity in P. berghei infection of mice; format: in vivo; conditions: prophylactic model; for Parasitemia level after infection for 72 h / MST: mean ± SEM, n = 6; for MST: over 30 days
Description: as §1, §2, §3, §4
(vii) Prophylactic activity of cycleanine. The prophylactic activity of cycleanine was evaluated using a previously described method ([42], [43]). The mice were randomly divided into four groups of six mice per group. Groups 1 and 2 were given 25 and 50 mg/kg of cycleanine, respectively, group 3 was given 1.2 mg/kg of pyrimethamine (positive control), and group 4 was given 10 ml/kg of distilled water (negative control). Administration of cycleanine or the drug continued for three consecutive days. On the fourth day, the mice were inoculated with P. berghei. The parasitemia level was evaluated by blood smears after 3 days. The survival times (days) of the mice were recorded over a period of 30 days, and MST were calculated.

[10] = test system: P. falciparum chloroquine-sensitive clone 3D7; set-up: method as in PMID 26594753; conditions: read-out: IC50 against P. falciparum chloroquine-sensitive clone 3D7; cited from earlier work
[11] = set-up: method as in earlier work; conditions: mice; cited from earlier work
[12] = Acute median lethal dose (LD50) of cycleanine in mice; format: in vivo; conditions: 24 h, intraperitoneal
Description: as §3
(iv) Determination of median lethal dose (LD50) of cycleanine. The median lethal dose (LD50) of cycleanine was determined using albino mice by the intraperitoneal (i.p.) route ([40]). Different doses of cycleanine (10 to 5,000 mg/kg) were intraperitoneally administered to groups of three mice each. The mice were monitored for manifestation of physical signs of toxicity, including decrease of motor activity, writhing, decrease of body/limb tone, weakness, and death. The number of deaths in each group within 24 h was recorded. The LD50 value was calculated as the geometrical means of the minimum dose producing 100% mortality and the maximum dose producing 0%.

[13] = read-out: CC50 against HOE, human ovarian epithelial (HOE) cells
[14] = Plasmodium falciparum, DD2, chloroquine-resistant strain, mean ± SD, n = 3 independent biological repeats, read-out: IC50 against P. falciparum strain Dd2
[15] = chloroquine-resistant strain, ref 16, read-out: IC50 against P. falciparum strain W2
[16] = Plasmodium falciparum, DD2, read-out: IC50 against P. falciparum strain Dd2
[17] = chloroquine-resistant strain, ref 18, read-out: IC50 against P. falciparum strain W2
[18] = 25 mg/kg oral, mean ± SEM, 25 mg/kg
[19] = 50 mg/kg oral, mean ± SEM, 50 mg/kg

In the case of COc1cc2c3c4c1Oc1cc5c(cc1O4)C(Cc1ccc(O)c(c1)Oc1ccc(cc1)CC3NCC2)N(C)CC5 (centres unmarked) [2′-Norcocsuline (3), 2′-norcocsuline], the IC50 [1] is listed as 0.048 µM, the “CC50 against cancer cell line KB” value [2] is listed as 3.8^b μM and the CC50 [3, 13] is listed as 8 ± 0.2 µM. For the same compound, the IC50 ([4]; read-out: IC50 against chloroquine-resistant clone W2) was 0.248 µM and the IC50 [5, 14] was 7 ± 1.6 µM.

For COc1cc2c3c(c1OC)Oc1ccc(cc1)C[C@H]1c4c(c(CN(C)C)c(OC)c(OC)c4Oc4ccc(cc4)C[C@@H]3N(C)CC2)CCN1C [5-[(Dimethylamino)methyl]cycleanine (4), 5-[(Dimethylamino)methyl]cycleanine], the CC50 [3, 13] is listed as 10 ± 0.2 µM and the IC50 [5, 14] is listed as 0.7 ± 0.1 µM.

In the case of C#CCNCc1c2c3c(c(OC)c1OC)Oc1ccc(cc1)C[C@H]1c4c(cc(OC)c(OC)c4Oc4ccc(cc4)C[C@@H]3N(C)CC2)CCN1C [5-[(Propargylamino)methyl]cycleanine (5), 5-[(Propargylamino)methyl]cycleanine], the CC50 [3, 13] is listed as 32 ± 1.6 µM and the IC50 [5, 14] is listed as 1.8 ± 0.2 µM.

For CCN(CC)CCCC(C)Nc1ccnc2cc(Cl)ccc12 (centres unmarked) [Chloroquine, reference compound], the IC50 [1] is listed as 0.006 µM, the “CC50 against cancer cell line KB” value [2] is listed as 33.7^b μM and the “Suppression of parasitemia at 96 h” value (Plasmodium berghei [6]; 5 mg/kg per day oral) is listed as 94.0%. For the same compound, the “Parasitemia after infection for 96 h” value (Plasmodium berghei [6]; 5 mg/kg per day oral) was 2.0 ± 0.8^b %, the MST (Plasmodium berghei [6]; 5 mg/kg per day oral) was 30.0 ± 0.0^b days and the IC50 [4, 15] was 0.135 µM. The IC50 [5, 16] was 0.18 ± 0.03 µM, the “Parasitaemia Day 3” value (Plasmodium berghei [7]; 5 mg/kg oral, mean ± SEM) was 12.4 ± 0.5% and the “Parasitaemia Day 4” value (Plasmodium berghei [7]; 5 mg/kg oral, mean ± SEM) was 2.1 ± 0.2%. For the same compound, the “Parasitaemia Day 6” value (Plasmodium berghei [7]; 5 mg/kg oral) was 0.0%, the “Parasitaemia Day 7” value (Plasmodium berghei [7]; 5 mg/kg oral) was 0.0% and the “Parasitaemia Day 5” value (Plasmodium berghei [7]; 5 mg/kg oral, 5 mg/kg) was 0%. The MST (Plasmodium berghei [7]; 5 mg/kg oral, mean ± SEM, 5 mg/kg) was 30 days.

For COc1cc2c3c(c1O)Oc1ccc(cc1)C[C@@H]1c4c(cc(OC)c(O)c4Oc4ccc(cc4)C[C@H]3N(C)CC2)CCN1C [Isochondodendrine (2), isochondodendrine], the CC50 [3] is given as 10.5 ± 1.2 µM, the IC50 [4, 17] is given as 0.2 µM and the IC50 [5, 16] is given as 6.1 ± 1.3 µM. The CC50 [8] was 29 µM.

With CCc1nc(N)nc(N)c1-c1ccc(Cl)cc1 [Pyrimethamine, reference compound] the “Suppression of parasitemia level after infection for 72 h” value (shortened to “Suppression of parasitemia level”) (Plasmodium berghei [9]; 1.2 mg/kg per day oral) was 76.2%, the “Parasitemia level after infection for 72 h” value (Plasmodium berghei [9]; 1.2 mg/kg per day oral) was 4.8 ± 1.1^b % and the MST (Plasmodium berghei [9]; 1.2 mg/kg per day oral) was 29.8 ± 0.2^b days.

For cycleanine, the IC50 [1] is given as 0.07 µM, the “Suppression of parasitemia level” value (Plasmodium berghei [9]; 25 mg/kg per day oral) is given as 43.4% and the “Parasitemia level after infection for 72 h” value (Plasmodium berghei [9]; 25 mg/kg per day oral) is given as 11.5 ± 0.9^b %. The MST (Plasmodium berghei [9]; 25 mg/kg per day oral) was 23.0 ± 0.6^b days, the “Suppression of parasitemia level” value (Plasmodium berghei [9]; 50 mg/kg per day oral) was 59.0% and the “Parasitemia level after infection for 72 h” value (Plasmodium berghei [9]; 50 mg/kg per day oral) was 8.3 ± 1.0^b %. The MST (Plasmodium berghei [9]; 50 mg/kg per day oral) was 24.5 ± 0.6^b days, the “CC50 against cancer cell line KB” value [2] was greater than 33.7 µM and the IC50 [10] was 0.08 µM. For the same compound, the LD50 [11] was 1100 mg/kg, the CC50 [3, 13] was 35 ± 0.1 µM and the “Suppression of parasitemia at 96 h” value (Plasmodium berghei [6]; 25 mg/kg per day oral) was 44.7%. For the same compound, the “Parasitemia after infection for 96 h” value (Plasmodium berghei [6]; 25 mg/kg per day oral) was 15.7 ± 1.8^b %, the MST (Plasmodium berghei [6]; 25 mg/kg per day oral) was 24.7 ± 1.1^b days and the “Suppression of parasitemia at 96 h” value (Plasmodium berghei [6]; 50 mg/kg per day oral) was 86.5%. For the same compound, the “Parasitemia after infection for 96 h” value (Plasmodium berghei [6]; 50 mg/kg per day oral) was 3.8 ± 0.7^b %, the MST (Plasmodium berghei [6]; 50 mg/kg per day oral) was 28.2 ± 0.9^b days and the IC50 [4, 15] was 0.25 µM. For the same compound, the IC50 [4, 17] was 4.5 µM, the IC50 ([5]; chloroquine-resistant strain, mean ± SD, n = 3 independent biological repeats, read-out: IC50 against P. falciparum strain Dd2) was 17.7 ± 2 µM and the “Parasitaemia Day 3” value (Plasmodium berghei [7]; 25 mg/kg oral, mean ± SEM) was 12.7 ± 1.7%. For the same compound, the “Parasitaemia Day 5” value (Plasmodium berghei [7]; [18]) was 13.3%, the MST (Plasmodium berghei [7]; [18]) was 21 days and the “Parasitaemia Day 3” value (Plasmodium berghei [7]; 50 mg/kg oral, mean ± SEM) was 15.5 ± 0.9%. The “Parasitaemia Day 6” value (Plasmodium berghei [7]; 50 mg/kg oral, mean ± SEM) was 6.0 ± 1.0%, the “Parasitaemia Day 7” value (Plasmodium berghei [7]; 50 mg/kg oral, mean ± SEM) was 3.7 ± 1.1% and the “Parasitaemia Day 5” value (Plasmodium berghei [7]; [19]) was 10.5%. For the same compound, the MST (Plasmodium berghei [7]; [19]) was 25 days, the CC50 ([8]; read-out: CC50 against cancer cell line HCT, HCT-116 human colon carcinoma cells) was 531 µM and the “Acute median lethal dose (LD50)” value [12] was 4500 mg/kg.
